In patent US20160052926A1, “NOVEL PYRIMIDINE AND PYRIDINE COMPOUNDS AND USAGE THEREOF” (HUTCHISON MEDIPHARMA LIMITED, priority 2013, published 2016):

Legend:
Assay type in all cases: biochemical
Recombinant human FGFR2 = Recombinant human FGFR2 (Homo sapiens, UniProt P21802); test: Transcreener Kinase Assay of FGFR2; conditions: read-out: FGFR2 (FP) IC50
Description: Transcreener Kinase Assay of FGFR2
• Compounds were solved in DMSO and were diluted with assay buffer to 5 folds of final concentration keeping the DMSO concentration at 5%. Further dilution are needed to make final concentrations are at 1, 0.33, 0.11, 0.037, 0.012, 0.004, 0.0014, 0.0005 μM; (the final concentration of DMSO is 1%). • Enzyme/Substrate stock Preparation: Recombinant human FGFR2 and Poly E4Y are both diluted in assay buffer. The final concentration is 0.3 ng/μL for FGFR2 and 62.5 ng/μL for Poly E4Y. The mixture is being kept in ice before use; • Prepare ATP Diluents, 10 mM ATP is diluted in assay buffer, the final concentration is 25 μM; • Prepare ADP Diluents: diluted ADP (500 μM) in assay buffer, the final concentration is 25 μM; • Prepare ATP standard curve stock as following:
• In a 96-well plate, Add 5 μL of compound or control. (positive control: 5 μL of 5% DMSO; negative control: 5 μL of 500 mM EDTA) into desired wells; • Add 10 μL of Enzyme/Substrate stock into each well; • Add 10 μL of ATP Diluents to initiate the enzyme reaction and votex the plate immediately on a plate shaker; • For the wells to make standard curve, add 5 μL of 5% DMSO, 10 μL of assay buffer and 10 μL of ATP standard curve stock. • Incubate the plate for 45 min at 28[…] on a plate shaker in a low speed.
• Detection Mix Preparation: The mixture is made by dilution with MilliQ water; as following: ADP Alexa633 tracer (1:100), ADP antibody (1:158), and stop & detect buffer (1:10); • Tracer Only control Preparation: The mixture is made by dilution with MilliQ water; as following: ADP Alexa633 tracer (1:100), and stop & detect buffer (1:10) • No Tracer control Preparation: stop & detect buffer is diluted with MilliQ water; by 10 fold. • Add 25 μL of detection mix, Tracer Only control and No Tracer control into corresponding wells, respectively; • Incubate at 28 °C for 1 h, on a plate shaker in a low speed; • Measure florescence polarization (FP) on TECAN F500. Excitation wavelength: 610 nm, Emission wavelength: 670 nm.
(§1) • [ADP] in Compound well represents the ADP concentration in compound well. • [ADP] in Positive control well represents the ADP concentration in 5% DMSO well • Conversion of mP value to ADP concentration is calculated based on the formula which determined by standard curve. And mP value is measured by following the instruction provided by BellBrook Labs. (www.bellbrooklabs.com). 6. IC50: calculated using XL-Fit 2.0 software.

FGFR3 kinase = FGFR3 kinase (Homo sapiens, UniProt P22607); test: Z-Lyte Kinase Assay of FGFR3
Description: Z-Lyte Kinase Assay of FGFR3
The final concentrations are 1, 0.33, 0.11, 0.037, 0.012, 0.004, 0.0014, 0.00046 μM, and the final concentration of DMSO is 2%. • 3) Kinase/Peptide Mixture (P/K solution): Prepare Kinase/Peptide Mixture by diluting the kinase to 0.7 μg/ml and the Z-LYTE™ Tyr 4 peptide to 4 μM in 1.33× Kinase Buffer. Mix gently by pipetting. • 4) Phospho-peptide Solution (PP solution): Add 0.4 μl of Z-LYTE™ Tyr 4 Phospho-peptide to 99.6 μl of 1.33× Kinase Buffer. • 5) ATP Solution: Prepare ATP Solution by diluting the 10 mM of ATP in 1.33× Kinase Buffer to 300 uM. • 6) Development Solution: Dilute Development Reagent B with Development Buffer as 1:128.
Shake the plate for 30 Sec and centrifuge (1500 rpm, 1 min) • Seal the plate to protect from the light and incubate the plate for 1 hour at RT (25-30[…]) • 2) Development reaction • Add 5 μl of the Development solution to all wells • Shake the plate for 30 Sec and centrifuge (1500 rpm, 1 min) • Seal the plate to protect from the light and incubate the plate for 1 hour at RT (25-30[…]) • 3) Stop and read • Add 5 μl of the Stop reagent to all wells • Shake the plate for 30 Sec and centrifuge (1500 rpm, 1 min) • Measure the value of Coumarin (Ex400 nm, Em445 nm) and fluorescein (Ex400 nm, Em520 nm), respectively.
Inhibition rate(IR)=1−%Photest Cpd/%PhoC2
• determined with add-in software for Microsoft Excel, XLfit™ (version 2.0) from ID Business Solutions (Guildford, UK)

Recombinant human FGFR1 = Recombinant human FGFR1 (Homo sapiens, UniProt P11362); test: Transcreener Kinase Assay of FGFR1; conditions: read-out: FGFR1 (FP) IC50
Description: Transcreener Kinase Assay of FGFR1
Prepare Solution • Compounds were solved in DMSO and were diluted with assay buffer to 5 folds of final concentration keeping the DMSO concentration at 5%. Further dilution are needed to make final concentrations are at 1, 0.33, 0.11, 0.037, 0.012, 0.004, 0.0014, 0.0005 μM; (the final concentration of DMSO is 1%). • Enzyme/Substrate stock Preparation: Recombinant human FGFR1 and Poly E4Y are both diluted in assay buffer.
Enzymatic Reaction • In a 96-well plate, Add 5 μL of compound or control. (positive control: 5 μL of 5% DMSO; negative control: 5 μL of 500 mM EDTA) into desired wells; • Add 10 μL of Enzyme/Substrate stock into each well; • Add 10 μL of ATP Diluents to initiate the enzyme reaction and votex the plate immediately on a plate shaker; • For the wells to make standard curve, add 5 μL of 5% DMSO, 10 μL of assay buffer and 10 μL of ATP standard curve stock. • Incubate the plate for 45 min at 28[…] on a plate shaker in a low speed.
Excitation wavelength: 610 nm, Emission wavelength: 670 nm.
as §1

Chain of Recombinant human FGFR1 (P11362 22-822): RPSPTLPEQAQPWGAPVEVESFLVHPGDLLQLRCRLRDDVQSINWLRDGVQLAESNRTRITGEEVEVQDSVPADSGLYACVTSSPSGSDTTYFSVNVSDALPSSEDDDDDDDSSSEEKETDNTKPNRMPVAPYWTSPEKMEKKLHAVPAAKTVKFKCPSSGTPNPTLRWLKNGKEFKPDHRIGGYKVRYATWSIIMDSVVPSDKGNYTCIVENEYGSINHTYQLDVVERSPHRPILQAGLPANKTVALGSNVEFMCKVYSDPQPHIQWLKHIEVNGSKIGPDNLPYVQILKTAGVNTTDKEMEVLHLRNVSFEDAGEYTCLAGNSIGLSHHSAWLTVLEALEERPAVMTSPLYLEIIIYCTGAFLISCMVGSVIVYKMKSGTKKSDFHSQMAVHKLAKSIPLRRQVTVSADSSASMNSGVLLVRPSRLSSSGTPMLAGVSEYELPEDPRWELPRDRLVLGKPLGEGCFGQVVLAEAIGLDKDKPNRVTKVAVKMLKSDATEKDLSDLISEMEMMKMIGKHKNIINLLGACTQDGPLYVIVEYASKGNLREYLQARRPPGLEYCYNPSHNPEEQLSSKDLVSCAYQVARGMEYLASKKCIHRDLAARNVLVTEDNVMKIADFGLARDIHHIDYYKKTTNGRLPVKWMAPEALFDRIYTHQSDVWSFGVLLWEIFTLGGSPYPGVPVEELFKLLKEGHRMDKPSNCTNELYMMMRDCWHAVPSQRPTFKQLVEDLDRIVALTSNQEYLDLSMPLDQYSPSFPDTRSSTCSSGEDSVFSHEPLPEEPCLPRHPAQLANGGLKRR
Chain of Recombinant human FGFR2 (P21802 22-821): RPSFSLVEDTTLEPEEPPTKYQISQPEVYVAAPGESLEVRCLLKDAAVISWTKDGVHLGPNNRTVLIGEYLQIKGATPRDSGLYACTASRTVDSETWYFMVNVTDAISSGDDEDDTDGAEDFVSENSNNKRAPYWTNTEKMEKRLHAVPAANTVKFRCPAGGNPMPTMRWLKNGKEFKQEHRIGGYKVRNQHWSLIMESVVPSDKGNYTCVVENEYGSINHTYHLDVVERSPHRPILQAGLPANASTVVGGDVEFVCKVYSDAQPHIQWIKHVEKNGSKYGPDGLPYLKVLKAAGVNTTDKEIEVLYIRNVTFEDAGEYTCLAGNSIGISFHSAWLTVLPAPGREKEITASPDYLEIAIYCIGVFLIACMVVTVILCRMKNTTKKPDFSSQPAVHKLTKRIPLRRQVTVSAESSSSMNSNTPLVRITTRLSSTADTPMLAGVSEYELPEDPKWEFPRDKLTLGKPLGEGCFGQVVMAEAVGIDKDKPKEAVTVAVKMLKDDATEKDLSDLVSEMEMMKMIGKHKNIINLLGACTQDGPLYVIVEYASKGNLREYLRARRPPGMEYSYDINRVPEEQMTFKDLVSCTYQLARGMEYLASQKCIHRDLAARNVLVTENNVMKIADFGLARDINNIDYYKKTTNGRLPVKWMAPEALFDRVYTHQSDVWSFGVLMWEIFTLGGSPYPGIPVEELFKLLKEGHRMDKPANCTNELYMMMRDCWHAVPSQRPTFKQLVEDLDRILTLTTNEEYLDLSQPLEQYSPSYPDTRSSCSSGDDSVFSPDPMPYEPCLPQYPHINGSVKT
Chain of FGFR3 kinase (P22607 23-806): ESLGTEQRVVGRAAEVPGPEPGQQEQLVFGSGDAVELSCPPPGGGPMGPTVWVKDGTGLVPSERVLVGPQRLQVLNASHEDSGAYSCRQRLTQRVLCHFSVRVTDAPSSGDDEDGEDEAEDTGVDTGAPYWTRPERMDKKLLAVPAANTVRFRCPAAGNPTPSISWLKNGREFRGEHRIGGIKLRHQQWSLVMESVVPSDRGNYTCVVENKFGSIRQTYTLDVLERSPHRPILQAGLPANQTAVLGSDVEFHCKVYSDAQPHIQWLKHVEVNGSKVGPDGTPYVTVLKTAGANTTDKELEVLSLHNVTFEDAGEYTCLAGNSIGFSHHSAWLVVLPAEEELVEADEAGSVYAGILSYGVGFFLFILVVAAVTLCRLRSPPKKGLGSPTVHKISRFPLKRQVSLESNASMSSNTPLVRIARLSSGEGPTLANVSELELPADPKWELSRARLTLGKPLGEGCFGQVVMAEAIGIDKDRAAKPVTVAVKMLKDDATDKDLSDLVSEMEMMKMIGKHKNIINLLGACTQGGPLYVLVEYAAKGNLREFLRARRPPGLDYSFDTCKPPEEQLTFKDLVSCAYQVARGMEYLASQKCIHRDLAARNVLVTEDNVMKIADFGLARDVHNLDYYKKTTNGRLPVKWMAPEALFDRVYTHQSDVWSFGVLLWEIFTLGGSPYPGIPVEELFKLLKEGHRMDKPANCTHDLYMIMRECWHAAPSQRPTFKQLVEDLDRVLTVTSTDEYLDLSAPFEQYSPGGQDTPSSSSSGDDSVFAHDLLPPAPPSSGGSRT

SMILES | IC50 (Recombinant human FGFR2) | IC50 (FGFR3 kinase) | IC50 (Recombinant human FGFR1)
CCN1CCN(c2ccc(Nc3ncc(CCc4cc(C(=O)NC)cc5occc45)cn3)cc2)CC1 [Compound 4] | 233 nM | 795 nM | 201 nM
CCN1CCN(c2ccc(Nc3ncc(CCc4cc(C(=O)NOC)cc5c4CCO5)cn3)cc2)CC1 [Compound 6] | 986 nM |  | 922 nM
CCN1CCN(c2ccc(Nc3ncc(CCc4cc(C(=O)NC5CC5)cc5occc45)cn3)cc2)CC1 [Compound 7] | 169 nM | 590 nM | 143 nM
CNC(=O)c1cc(CCc2cnc(Nc3cccc(N4C[C@@H](C)N[C@@H](C)C4)c3)nc2)cc(OC)c1 [Compound 12] | 25 nM | 128 nM | 98 nM
CCOc1cc(CCc2cnc(Nc3ccc(N4CCN(CC)CC4)cc3)nc2)cc(C(=O)NOC)c1 [Compound 51] | 113 nM | 175 nM | 103 nM
CCN1CCN(c2ccc(Nc3ncc(CCc4cc(OC)cc(C(=O)NOC(C)C)c4)cn3)cc2)CC1 [Compound 58] | 123 nM | 509 nM | 325 nM
CNC(=O)c1cc(CCc2cnc(Nc3c(C)nn(C)c3C)nc2)c(F)c(OC)c1 [Compound 109] | 275 nM | 311 nM | 379 nM
CNC(=O)c1cc(CCc2cnc(Nc3cnn(CC(=O)N4CCN(C)CC4)c3)nc2)c(F)c(OC)c1 [Compound 144] | 6 nM | 16 nM | 13 nM
CNC(=O)c1cc(CCc2cnc(Nc3cnn(C4CCNCC4)c3)nc2)c(Cl)c(OC)c1 [Compound 158, 4-chloro-3-methoxy-N-methyl-5-(2-(2-(1-(piperidin-4-yl)-1H-pyrazol-4-ylamino)pyrimidin-5-yl)ethyl)benzamide] | 8 nM | 6 nM | 8 nM
CNC(=O)c1cc(CCc2cnc(Nc3cnn([C@@H]4CCNC4)c3)nc2)c(F)c(OC)c1 [Compound 161] | 9 nM | 12 nM | 17 nM
CNC(=O)c1cc(CCc2cnc(Nc3cnn([C@H]4CCNC4)c3)nc2)c(F)c(OC)c1 [Compound 162] | 10 nM | 14 nM | 17 nM
CNC(=O)c1cc(CCc2cnc(Nc3cnn(C4CCNCC4)c3)nc2)c(F)c(OC)c1 [Compound 164] | 8 nM | 8 nM | 8 nM
CCN1CC[C@@H](n2cc(Nc3ncc(CCc4cc(C(=O)NC)cc(OC)c4F)cn3)cn2)C1 [Compound 170] | 87 nM | 132 nM | 99 nM
CNC(=O)c1cc(CCc2cnc(Nc3ccc(N4C[C@@H](C)N[C@@H](C)C4)nc3)nc2)c(Cl)c(OC)c1 [Compound 214] | 11 nM | 17 nM | 10 nM
CNC(=O)c1cc(C#Cc2cnc(Nc3ccc(N4C[C@@H](C)N[C@@H](C)C4)cc3)nc2)c(Cl)c(OC)c1 [Compound 222, 4-chloro-3-((2-((4-((3S,5R)-3,5-dimethylpiperazin-1-yl)phenyl)amino)pyrimidin-5-yl)ethynyl)-5-methoxy-N-methylbenzamide] | 8 nM | 27 nM | 22 nM

Results, then the molecule that gave them:

IC50 (Recombinant human FGFR2) | IC50 (FGFR3 kinase) | IC50 (Recombinant human FGFR1) | SMILES
245 nM | 347 nM | 360 nM | CCn1cnc(Nc2ncc(CCc3cc(C(=O)NC)cc(OC)c3F)cn2)c1 [Compound 28]
13 nM | 25 nM | 31 nM | CNC(=O)c1cc(CCc2cnc(Nc3ccn4cnnc4c3)nc2)c(F)c(OC)c1 [Compound 68]
16 nM | 22 nM | 27 nM | CNC(=O)c1cc(CCc2cnc(Nc3ccn4c(C)nnc4c3)nc2)c(F)c(OC)c1 [Compound 70]
11 nM | 40 nM | 34 nM | CNC(=O)c1cc(CCc2cnc(Nc3ccn4c(COC)nnc4c3)nc2)c(F)c(OC)c1 [Compound 73]
18 nM | 31 nM | 44 nM | CNC(=O)c1cc(CCc2cnc(Nc3cc[n+]([O-])c(C)c3)nc2)c(F)c(OC)c1 [Compound 78, 4-((5-(2-fluoro-3-methoxy-5-(methylcarbamoyl)phenethyl)pyrimidin-2-yl)amino)-2-methylpyridine 1-oxide]
10 nM | 16 nM | 15 nM | CNC(=O)c1cc(CCc2cnc(Nc3cnn(C4CNC4)c3)nc2)c(F)c(OC)c1 [Compound 160]
132 nM | 227 nM | 271 nM | CCn1cc(Nc2ccc(OCc3cc(C(=O)NC)cc(OC)c3F)cn2)cn1 [Compound 187]
6 nM | 7 nM | 15 nM | CNC(=O)c1cc(COc2cnc(Nc3cnn(C4C[C@@H](C)N[C@@H](C)C4)c3)nc2)c(F)c(OC)c1 (some centres unmarked) [Compound 202]
13 nM | 21 nM | 38 nM | CNC(=O)c1cc(CCc2cnc(Nc3ccc(CC(=O)O)cc3)nc2)c(F)c(OC)c1 [Compound 206]
16 nM | 29 nM | 45 nM | CNC(=O)c1cc(COc2cnc(Nc3ccc(CC(=O)O)cc3)nc2)c(F)c(OC)c1 [Compound 207]
27 nM | 690 nM | 119 nM | C#Cc1ccc(Nc2ncc(OCc3cc(C(=O)NC)cc(OC)c3F)cn2)cc1 [Compound 210]
4 nM | 10 nM | 10 nM | CNC(=O)c1cc(COc2cnc(Nc3ccc(N4C[C@@H](C)N[C@@H](C)C4)c(F)c3)nc2)c(Cl)c(OC)c1 [Compound 220]
